From patent US8354512B2, “Ligand and metal complex” (National Chiao Tung University, priority 2009, dated 2013)
Like-named read-outs stand apart in the source and are kept apart here.

What was measured:
[1] = molecular target: HSA (Homo sapiens, UniProt P02768); settings: literature values; cited from earlier work
[2] = Water exchange rate and molecular rotational correlation time by 17O-NMR at 9.4 T; format: physicochemical; settings: 298 K
Description: According to the disclosure of Chem. Rev., 1999, 99, 2293-2352, the relaxivity of the metal complex is affected by the hydration number q and the correlation time τc. The correlation time τc depends on three parameters: (1) molecular rotational correlation time (τR); (2) Electron longitudinal and transverse spin relaxation time (T1e, T2e); and (3) Water residence lifetime (τm) or Water exchange rate (kex), τm^−1=kex. Since Bz-CB-TTDA and CB-TTDA have the same hydration number, comparison between Bz-CB-TTDA and CB-TTDA in relaxivity can be determined by the aforesaid parameters, i.e., the higher the parameters, the higher will be the relaxivity.
Electron longitudinal and transverse spin relaxation time (T1e, T2e) of each test sample of the metal complexes was measured by using ^17O-NMR in a magnetic field of 9.4 T. The water exchange rate at 298 K (Kex^298) and the molecular rotational correlation time at 298 K (τR^298) of each test sample were determined by using three plots of “T1 versus temperature”, “T2 versus temperature” and “chemical shift versus temperature”.

[3] = Kinetic stability in PBS containing Zn2+; format: physicochemical; parameters: unit not given here; settings: 2.5 mM complex, 2.5 mM ZnCl2, PBS pH 7.4, 37±0.1° C., three days, NMR 20 MHz
Experimental: Kinetic stability is evaluated by testing the stability of the metal complex in an environment containing a poisonous metal ion Zn^2+. The stability is defined as R1^p (t)/R1p (0), in which R1^P (t)=1/T1 (t), T1 is the relaxivity. The higher the R1^P (t)/R1p (0), the higher will be the stability.
2.5 mM of each of [Gd(Bz-CB-TTDA)]^2−−, [Gd(CB-TTDA)]^2− and [Gd(DTPA)]^2− was placed in a phosphate buffer saline (PBS, pH=7.4), followed by adding 2.5 mM of ZnCl2 to obtain a sample. The sample was subjected to reaction at 37±0.1° C. for three days (t=3), after which the relaxivity T1(t) of the sample was determined by using NMR (20 MHz).

[4] = cited from earlier work

Sequence of HSA (P02768 25-609): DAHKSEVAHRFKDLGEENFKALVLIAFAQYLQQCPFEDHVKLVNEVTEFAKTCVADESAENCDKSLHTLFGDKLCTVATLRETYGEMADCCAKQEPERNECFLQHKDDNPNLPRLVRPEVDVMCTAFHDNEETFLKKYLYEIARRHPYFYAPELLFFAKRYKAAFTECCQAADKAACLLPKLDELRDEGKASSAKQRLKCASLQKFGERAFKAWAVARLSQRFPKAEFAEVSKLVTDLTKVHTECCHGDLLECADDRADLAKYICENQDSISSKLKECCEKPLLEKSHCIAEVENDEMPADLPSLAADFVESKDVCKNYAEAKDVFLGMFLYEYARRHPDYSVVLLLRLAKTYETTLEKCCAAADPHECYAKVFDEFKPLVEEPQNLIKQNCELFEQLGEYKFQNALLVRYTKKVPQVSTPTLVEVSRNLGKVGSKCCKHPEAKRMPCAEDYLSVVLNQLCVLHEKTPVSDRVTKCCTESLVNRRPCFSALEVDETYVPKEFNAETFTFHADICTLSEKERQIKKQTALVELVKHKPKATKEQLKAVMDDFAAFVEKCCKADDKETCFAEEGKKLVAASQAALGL

O=C(O)CN(CCN(CC(=O)O)CC(=O)O)CCN(CC(=O)O)C(COCc1ccccc1)C(=O)O (stereo not drawn) [[Gd(BOPTA)]^2−]
γ1^b bound relaxivity [1]: 33.0^a mM^−1s^−1

O=C([O-])CN(CCN(CC(=O)[O-])CC(=O)[O-])CCN(CC(=O)[O-])CC(=O)[O-].[Gd+3] [[Gd(DTPA)]^2−]
kex^298 water exchange rate [2]: 4.1 10^6 s^−1 | τR^298 molecular rotational correlation time [2]: 103 ps | R1^p (t)/R1^p (0) [3]: 49.79 | γ1 relaxivity ([4]; pH 7.6 ± 0.1, Am. J. Roentgenol., 1984, 142, 619-624): 3.89 ± 0.03^a mM^−1s^−1

CCOc1ccc(C[C@@H](C(=O)O)N(CCN(CCN(CC(=O)O)CC(=O)O)CC(=O)O)CC(=O)O)cc1 [[Gd(S)-EOB-DTPA]^2−]
γ1^b bound relaxivity [1]: 44.1^a mM^−1s^−1

O=C([O-])CN(CCCN(CC(=O)[O-])CC(=O)[O-])CCN(CC(=O)[O-])CC(=O)[O-].[Gd+3] [[Gd(TTDA)]^2−]
kex^298 water exchange rate [2]: 146 ± 17.0 10^6 s^−1 | τR^298 molecular rotational correlation time [2]: 104 ± 12.0 ps | γ1 relaxivity ([4]; pH 7.5 ± 0.1, Inorg. Chem., 2005, 44, 382): 3.85 ± 0.03^a mM^−1s^−1
